Series [1] relates to TNFα production in human whole blood. Put plainly: Inhibitory activity on LPS-induced TNFα production in human whole blood. It counts as cell-based. To be noted: LPS stimulation, 37° C., 5 hours. The protocol: Inhibitory activities of the arylmethylene urea derivatives according to the present invention to the production of TNFα induced by stimulation with a lipopolysaccharide (LPS) were investigated using human whole blood.
After mixing each of the compounds of the present invention with human blood in a 96-well flat-bottom plate, the lipopolysaccharide (LPS) was added and the mixture was allowed to react at 37° C. for 5 hours. After the reaction, the resulting mixture was centrifuged at room temperature for 15 minutes, and supernatant of the resultant was recovered. For the quantification of TNFα in the supernatant, human cytokine kit (CIS biointernational) was used.

In the next series the test system is DSS-induced colitis. Put plainly: Dextran sulfate sodium (DSS)-induced colitis model of mice, rectal bleeding score. Particulars: 30 mg/kg orally every day from Day 27 to Day 31; for amelioration of symptoms / improvement in the rectal bleeding score (in words): Day 32; for rectal bleeding score on Day 32 (0: occult blood-negative, 2: occult blood-positive, 4: apparent bleeding): female BALB/c mice, 3 w/v % DSS. It counts as in vivo, BALB/c mice. The protocol: (§1) Female BALB/c mice (Japan SLC) of 7 to 9 weeks old were allowed to freely drink 3 w/v % dextran sulfate sodium (DSS) for 5 to 7 days, and then to freely drink sterilized distilled water for 5 days. This procedure was repeated 3 times to induce colitis. The uninduced (background) group was allowed to freely drink sterilized distilled water. The compound described in Example 2 was orally administered to the mice at a dose of 30 mg/kg every day from Day 27 to Day 31 counted from the start of the test, and rectal bleeding was scored (0: occult blood-negative, 2: occult blood-positive, 4: apparent bleeding) by using the method described by Murthy et al (see, for example, Dig Dis Sci., 38, 1722 (1993)).
On the other hand, the same test as in Example 452 was repeated except that 1-(4-(pyridin-4-yloxy)benzyl)-3-(3-t-butylisoxazol-5-yl)urea (the structural formula thereof is shown below) which is a compound included in WO 04/037789 was used in place of the compound of Example 2. The score on Day 32 (the last day of the test) of the colitis-uninduced group was 0, while the score of the colitis-induced group rose to 1.2±0.2.
as §1, with “Example 10” for “Example 2”
On the other hand, the same test as in Example 453 was repeated except that 1-(4-(pyridin-4-yloxy)benzyl)-3-([…])urea (the structural formula thereof is shown below) which is a compound included in WO 04/037789 was used in place of the compound of Example 10. The score on Day 32 (the last day of the test) of the colitis-uninduced group was 0, while the score of the colitis-induced group rose to 1.2±0.2.

The subject of series [2] is rhythmic bladder contractions. Put plainly: Rhythmic bladder contractions model in anesthetized rats. Particulars: i.v., 10 mg/kg; 10 minutes before and after administration; FIG. 2. It counts as in vivo, SD rats. The text has this: Using anesthetized rat rhythmic bladder contractions model, the inhibitory effect of the arylmethylene urea derivatives of the present invention on the detrusor hyperreflexia was investigated.
Female SD rats were anesthetized with an intraperitoneal injection of urethane (1.0 g/kg). A polyethylene tube was inserted from external urethral orifice into the bladder and the tube was fixed by ligating. The other end of the tube was equipped with a three-necked cock, and one of the necks thereof was connected to a pressure transducer for the measurement of intravesical pressure and the other neck was connected to a syringe for the infusion of physiological saline into the bladder. Thirty minutes after the surgery was completed, physiological saline in appropriate volume was infused via the tube in order to induce rhythmic bladder contractions. After stable rhythmic bladder contractions were obtained, a solution of each test compound or the solvent thereof was administered from a caudal vein in a volume of 0.5 mL/kg, and the effect on the frequency of bladder contractions was investigated. As the test compounds, the compounds of Examples 2 and 9 were used.
In each of the figures, the ordinate indicates the number of rhythmic bladder contractions for 10 minutes before and after administration of the compound.

In general, IC50 refers to the concentration that gives 50% inhibition. Low values mean greater potency in that assay, high ones weaker potency in that assay. `CC(=O)N1CCN(c2nccc(Oc3ccccc3CNC(=O)Nc3cc(C(C)(C)C)nn3-c3ccc(C)cc3)n2)CC1` [Example 10, 1-(2-(2-(4-acetylpiperazin-1-yl)pyrimidin-4-yloxy)benzyl)-3-(3-t-butyl-1-p-tolyl-1H-pyrazol-5-yl)urea] yielded an IC50 in series [1] of 1040 nM. In the series on DSS-induced colitis, the “amelioration of symptoms / improvement in the rectal bleeding score (in words)” value (“amelioration of symptoms / improvement” for short) is on record as “marked amelioration of symptoms was observed” and the “rectal bleeding score on Day 32 (0: occult blood-negative, 2: occult blood-positive, 4: apparent bleeding)” value came out at 0.6±0.3.
`Cc1ccc(-n2nc(C(C)(C)C)cc2NC(=O)NCc2ccccc2Oc2ccnc(NCCC3CCCN3C)n2)cc1` (stereo not shown) [Example 20, 1-(2-(2-(2-(1-methylpyrrolidin-2-yl)ethylamino)pyrimidin-4-yloxy)benzyl)-3-(3-t-butyl-1-p-tolyl-1H-pyrazol-5-yl)urea] came in with an IC50 in series [1] of 343 nM.
Turning to `Cc1ccc(-n2nc(C(C)(C)C)cc2NC(=O)NCc2cc(F)ccc2Oc2ccnc(N3CCOCC3)n2)cc1` [Example 9, 1-(2-(2-morpholinopyrimidin-4-yloxy)-5-fluorobenzyl)-3-(3-t-butyl-1-p-tolyl-1H-pyrazol-5-yl)urea], in series [1], 231 nM corresponded to half-maximal inhibition (IC50). In series [2], the “effect on the number of rhythmic bladder contractions” value is on record as “inhibited the rhythmic bladder contractions statistically significantly”.
For `Cc1ccc(-n2nc(C(C)(C)C)cc2NC(=O)NCc2ccccc2Oc2ccnc(N3CCC(C(N)=O)CC3)n2)cc1` [Example 14, 1-(4-(2-(((((3-t-butyl-1-p-tolyl-1H-pyrazol-5-yl)amino)carbonyl)amino)methyl)phenoxy)pyrimidin-2-yl)-piperidin-4-carboxylic amide], it took 458 nM to reach half-maximal inhibition in series [1] (IC50).
A word on the melting point: it is the temperature, or range, at which the solid turns liquid. Turning to `Cc1ccc(-n2nc(C(C)(C)C)cc2NC(=O)NCc2ccccc2Oc2cc(N3CCOCC3)ncn2)cc1` [Example 5, 1-(2-(6-morpholinopyrimidin-4-yloxy)benzyl)-3-(3-t-butyl-1-p-tolyl-1H-pyrazol-5-yl)urea], the melting point turned out to be 128.5 °C. Also, the IC50 in series [1] amounted to 843 nM.
Take `Cc1ccc(-n2nc(C(C)(C)C)cc2NC(=O)NCc2ccccc2Oc2ccnc(NCCCN(C)C)n2)cc1` [Example 11, 1-(2-(2-(3-(dimethylamino)propylamino)pyrimidin-4-yloxy)benzyl)-3-(3-t-butyl-1-p-tolyl-1H-pyrazol-5-yl)urea]: the IC50 in series [1] is 249 nM.
Still for that read-out and setting: the figure for `Cc1ccc(-n2nc(C(C)(C)C)cc2NC(=O)NCc2ccccc2Oc2ccnc(N3CCCC(C(N)=O)C3)n2)cc1` (stereo not shown) [Example 13, 1-(4-(2-(((((3-t-butyl-1-p-tolyl-1H-pyrazol-5-yl)amino)carbonyl)amino)methyl)phenoxy)pyrimidin-2-yl)-piperidin-3-carboxylic amide] is 496 nM; for `COCCN1CCN(c2nccc(Oc3ccccc3CNC(=O)Nc3cc(C(C)(C)C)nn3-c3ccc(C)cc3)n2)CC1` [Example 12, 1-(2-(2-(4-(2-methoxyethyl)piperazin-1-yl)pyrimidin-4-yloxy)benzyl)-3-(3-t-butyl-1-p-tolyl-1H-pyrazol-5-yl)urea] it is 268 nM.
Still for that read-out and setting: the figure for `COc1cc(-n2nc(C(C)(C)C)cc2NC(=O)NCc2ccccc2Oc2ccnc(N3CCOCC3)n2)ccc1C` [Example 56, 1-(2-(2-morpholinopyrimidin-4-yloxy)benzyl)-3-(3-t-butyl-1-(3-methoxy-4-methylphenyl)-1H-pyrazol-5-yl)urea] is 485 nM.
On the same count and under the same terms, the figure for `Cc1ccc(-n2nc(CC(C)(C)C)cc2NC(=O)NCc2ccccc2Oc2ccnc(N3CCOCC3)n2)cc1` [Example 28, 1-(2-(2-morpholinopyrimidin-4-yloxy)benzyl)-3-(3-neopentyl-1-p-tolyl-1H-pyrazol-5-yl)urea] is 513 nM.
Consider `Cc1ccc(-n2nc(C(C)(C)C)cc2NC(=O)NCc2ccccc2Oc2cc(N3CCCC(C(N)=O)C3)ncn2)cc1` (stereo not shown) [Example 82, 1-(6-(2-(3-(5-t-butyl-2-p-tolyl-2H-pyrazol-3-yl)-ureidomethyl)phenoxy)pyrimidin-4-yl)piperidin-3-carboxylic amide], for which it took 354 nM to reach half-maximal inhibition in series [1] (IC50).
Same read-out and setting: the figure for `Cc1ccc(-n2nc(C(C)(C)C)cc2NC(=O)NCc2ccccc2Oc2ccnc(NCCCN3CCCC3=O)n2)cc1` [Example 6, 1-(2-(2-(3-(2-oxo-pyrrolidin-1-yl)propylamino)pyrimidin-4-yloxy)benzyl)-3-(3-t-butyl-1-p-tolyl-1H-pyrazol-5-yl)urea] is 119 nM.
Take `CC(C)(C)c1cc(NC(=O)NCc2ccc(Oc3ccncc3)cc2)no1` [reference compound]: in the series on DSS-induced colitis, the “amelioration of symptoms / improvement” value is listed as “improvement in the score was not observed” and the “rectal bleeding score on Day 32 (0: occult blood-negative, 2: occult blood-positive, 4: apparent bleeding)” value turned out to be 1.3±0.3.
As to `Cc1ccc(-n2nc(C(C)(C)C)cc2NC(=O)NCc2cc(F)cc(C)c2Oc2ccnc(Cl)n2)cc1` [Example 85, 1-(2-(2-chloropyrimidin-4-yloxy)-3-methyl-5-fluorobenzyl)-3-(3-t-butyl-1-p-tolyl-1H-pyrazol-5-yl)urea], the midpoint of inhibition in series [1], the IC50, lay at 422 nM.
The compound `Cc1ccc(-n2nc(C(C)(C)C)cc2NC(=O)NCc2ccccc2Oc2ccnc(N3CCN(C)CC3)n2)cc1` [Example 7, 1-(2-(2-(4-methylpiperazin-1-yl)pyrimidin-4-yloxy)benzyl)-3-(3-t-butyl-1-p-tolyl-1H-pyrazol-5-yl)urea] displayed a melting point of 149.5 °C. This compound also returned an IC50 in series [1] of 296 nM.
In turn, `CCN(CC)CCCNc1nccc(Oc2ccccc2CNC(=O)Nc2cc(C(C)(C)C)nn2-c2ccc(C)cc2)n1` [Example 18, 1-(2-(2-(3-(diethylamino)propylamino)pyrimidin-4-yloxy)benzyl)-3-(3-t-butyl-1-p-tolyl-1H-pyrazol-5-yl)urea] had an IC50 in series [1] of 311 nM.
Consider `Cc1ccc(-n2nc(C(C)(C)C)cc2NC(=O)NCc2ccccc2Oc2cc(C)nc(N3CCOCC3)n2)cc1` [Example 98, 1-(2-(6-methyl-2-morpholinopyrimidin-4-yloxy)benzyl)-3-(3-t-butyl-1-p-tolyl-1H-pyrazol-5-yl)urea], for which, in series [1], the IC50 was found to be 298 nM.
On to `CC(C)(C)c1cc(NC(=O)NCc2ccc(Oc3ccncc3)cc2)on1` [1-(4-(pyridin-4-yloxy)benzyl)-3-(3-t-butylisoxazol-5-yl)urea, reference compound], for which, in the series with DSS-induced colitis, the “amelioration of symptoms / improvement” value is on record as “improvement in the score was not observed” and the “rectal bleeding score on Day 32 (0: occult blood-negative, 2: occult blood-positive, 4: apparent bleeding)” value is 1.1±0.2.
